Measurements published in patent US10266544B2, “Aryl substituted aminomethyl spectinomycin analogs as antibacterial agents” (ST. JUDE CHILDREN'S RESEARCH HOSPITAL, INC., priority 2013, dated 2019).
Structures can show the parent of a compound that is named as a salt. Where two headings read alike, the source gives them in different places.

Assays:
Assay type in all cases: cell-based
[1] = test system: Bacillus subtilis (ATCC 23857); test: MIC determination, microbroth dilution; conditions: ATCC23857; Bacillus subtilis (ATCC 23857); read-out: MIC B.s.
[2] = test system: Bacillus anthracis, Sterne 34F2; test: microbe, parasite or virus in culture; conditions: STERNE34F2, read-out: MIC B.a.
[3] = test system: Streptococcus pyogenes (ATCC 700294); test: MIC determination, microbroth dilution; conditions: ATCC700294; Streptococcus pyogenes (ATCC 700294); read-out: MIC S. py.
[4] = test system: Staphylococcus aureus (ATCC 29213); test: MIC determination, microbroth dilution; conditions: ATCC29213; Staphylococcus aureus (ATCC 29213); read-out: MIC S.a.
[5] = test system: Proteus vulgaris (ATCC 33420); test: MIC determination, microbroth dilution; conditions: ATCC33420
[6] = test system: Neisseria gonorrhoeae (ATCC 49226); test: Disc diffusion assay; conditions: ATCC49226, 4 μg per disc, read-out: Zone of inhibition N.g.
[7] = test system: Streptococcus pneumoniae clinical isolates representing several serotypes; test: MIC determination, Streptococcus pneumoniae panel of clinical isolates (Table 7); conditions: for MIC: Streptococcus pneumoniae
[8] = test system: live vaccine strain (LVS) of Francisella tularensis; test: microbe, parasite or virus in culture; conditions: Francisella tularensis, read-out: MIC F.t.
[9] = test system: Klebsiella pneumoniae (ATCC 33495); test: MIC determination, microbroth dilution; conditions: ATCC33495

For CN[C@@H]1[C@H](O)[C@H](NC)[C@H]2O[C@]3(O)[C@H](O[C@@H]2[C@H]1O)O[C@H](C)C[C@@]3(O)CNCc1ccc(F)cc1 [compound 2, 3′-(R)-3′-[(4-fluoro)benzylaminomethyl)]dihydrospectinomycin Trihydrochloride], the MIC [1] was 3.1 µg/mL, the MIC [2] was 25 µg/mL and the MIC [3] was 1.6 to 3.1 µg/mL. For the same compound, the MIC [4] was 25 to 50 µg/mL, the MIC [5] was ≥ 200 µg/mL and the zone of inhibition at 4 µg/disc [6] was 16 to 19 mm. For the same compound, the “susceptibility of strains with mono-resistance to penicillin, streptomycin, and erythromycin” value [7] was “highly susceptible”, the MIC ([7]; BAA1407, S. pneumoniae BAA-1407, Macrolide Resistant, read-out: MIC BAA-1407) was 6.3 µg/mL and the MIC ([7]; S. pneumoniae A66.1x, Drug Susceptible, read-out: MIC A66.1x) was 1.6 µg/mL. It also gave an MIC ([7]; S. pneumoniae BHN97x, Drug Susceptible, read-out: MIC BHN97x) of 1.6 µg/mL, an MIC ([7]; S. pneumoniae D39X, Drug Susceptible, read-out: MIC D39X) of 1.6 µg/mL and an MIC ([7]; S. pneumoniae Daw7, PenG Resistant, read-out: MIC Daw7) of 3.1 µg/mL. It also gave an MIC ([7]; S. pneumoniae Daw8, PenG Resistant, read-out: MIC Daw8) of 3.1 µg/mL, an MIC ([7]; S. pneumoniae Daw9, PenG Resistant, read-out: MIC Daw9) of 3.1 µg/mL and an MIC ([7]; S. pneumoniae Daw62, PenG Resistant, read-out: MIC Daw62) of 3.1 µg/mL. For the same compound, the MIC ([7]; S. pneumoniae Daw64, PenG Resistant, read-out: MIC Daw64) was 3.1 µg/mL, the MIC ([7]; S. pneumoniae OVA6, Macrolide Resistant, read-out: MIC OVA6) was 3.1 µg/mL and the MIC ([7]; S. pneumoniae T4X, Drug Susceptible, read-out: MIC T4X) was 3.1 µg/mL. The MIC [8] was 1.6 to 3.1 µg/mL and the MIC [9] was 100 to 200 µg/mL.
